In patent publication US20220146526A1, “METHOD FOR EVALUATING SAMPLE, ANALYSIS METHOD, METHOD FOR DETECTING DEGRADED SAMPLE, MARKER FOR DETECTING DEGRADED BLOOD PLASMA SAMPLE, AND MARKER FOR DETECTING DEGRADED SERUM SAMPLE” (SHIMADZU CORPORATION, priority 2019, published 2022):

Assays:
Assay type in all cases: physicochemical, human
[1] = LC/MS of serum sample: time from blood collection to centrifugation (Table J)
In short: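 Detection intensities are expressed relative to 1 for samples centrifuged 15 min after blood collection; centrifugation was at room temperature, 3500 rpm, 5 min. Frozen serum was run by electrospray LC-MS in MRM mode, with 0.1% formic acid water/acetonitrile at 0.25 mL/min on a 40 °C F5 column.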

[2] = LC/MS of serum sample: time from centrifugation to isolation (Table K); design: key to Rate of increase or decrease: detection intensity relative to the 30-minute value set as 1
In short: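 Serum left at room temperature 30 min, 1 h or 6 h between centrifugation (3500 rpm, 5 min, room temperature) and isolation, then frozen and analysed by LC/MS (Discovery HS F5-3 column, 40° C., 0.1% formic acid water/acetonitrile, electrospray, MRM). Values are detection intensity relative to the 30-min condition set to 1.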

[3] = LC/MS of serum sample: number of times of freezing and thawing (Table M); design: key to Rate of increase or decrease: detection intensity relative to 1 at 2 freeze-thaw cycles
In short: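 Values are detection intensities relative to serum thawed twice, versus 4, 6 or 10 freeze-thaw cycles. Serum came from blood spun at room temperature, 3500 rpm for 5 minutes. Analysis: electrospray LC/MS in MRM mode, Discovery HS F5-3 column, 40° C, 0.1% formic acid in water and acetonitrile.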

[4] = LC/MS of blood plasma sample: time from blood collection to centrifugation (Table D); settings: blood collection to centrifugation
In short: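 Detection intensities are expressed relative to samples centrifuged 15 min after collection (=1), measured by electrospray LC/MS in MRM mode (Discovery HS F5-3, 40 °C, formic acid water/acetonitrile gradient at 0.25 mL/min). EDTA blood from a healthy donor was held at 4 °C, centrifuged at 4 °C, 3000 rpm, 15 min, and plasma frozen.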

[5] = GC/MS of serum sample: number of times of freezing and thawing (Table I); design: key to Rate of increase or decrease / Rate of increase or decrease (first value, increase): detection intensity relative to 2 freeze-thaw cycles = 1; settings: serum, GC/MS
In short: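 Detection intensities are ratios to the value after two freeze–thaw cycles, which is set as 1, compared against 4, 6 and 10 cycles. Analysis used methoxymation and trimethylsilylation derivatization, then GC/MS with EI ionization and multiple reaction monitoring on a BPX5 column. Serum came from blood held at room temperature and spun at 3500 rpm for 5 min.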

[6] = LC/MS of blood plasma sample: number of times of freezing and thawing (Table F)
In short: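 Values are detection intensities normalised to 1 for plasma thawed twice, compared against 4, 6 and 10 freeze-thaw cycles. Measured by electrospray LC/MS in MRM mode, formic acid water/acetonitrile mobile phase, column at 40° C. Plasma came from EDTA blood, cooled to 4° C and spun at 3000 rpm for 15 min.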

[7] = GC/MS of serum sample: time from blood collection to centrifugation (Table G); settings: blood collection to centrifugation
In short: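 Values express detection intensity as a ratio to the sample centrifuged 15 minutes after blood collection (taken as 1). Serum was derivatized by methoxymation and trimethylsilylation, then analysed by electron-ionization GC/MS using multiple reaction monitoring on a BPX5 column ramped from 60 to 330° C.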

[8] = GC/MS of serum sample: time from centrifugation to isolation (Table H); design: key to Rate of increase or decrease / Rate of increase or decrease (first value, increase): detection intensity relative to 1 at 30 min centrifugation-to-isolation
In short: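 Values are GC/MS (EI, MRM) detection intensities of methoxymated/trimethylsilylated serum, normalised to 1 for the 30-min sample. Serum was isolated 30 min, 1 h or 6 h after room-temperature centrifugation (3500 rpm, 5 min) of blood.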

[9] = LC/MS of blood plasma sample: time from blood collection to cooling of blood (Table E); design: key to Rate of increase or decrease / Rate of increase or decrease (first value, increase): detection intensity relative to ≤1 min to cooling = 1
[10] = detection intensity relative to 1 at 15 minutes, after 4 hours
[11] = detection intensity, after 4 hours vs 15 minutes
[12] = detection intensity relative to 1 at 2 times, freezing and thawing 4 times
[13] = detection intensity, freezing and thawing 4 times vs 2 times

- Rate of increase or decrease ([1]; after 4 hours from blood collection to centrifugation, detection intensity relative to 1 at 15 minutes): 0.29
- Increase or decrease ([1]; serum sample, LC/MS, detection intensity vs 15 minutes from blood collection to centrifugation): Decrease
- Time when compound is affected ([1]; serum sample, LC/MS, time from blood collection to centrifugation, detection intensity changed by 30% or more vs 15 minutes): After 4 hours
- Rate of increase or decrease ([2]; after 1 hour from centrifugation to isolation, detection intensity relative to 1 at 30 minutes): 0.07
- Increase or decrease ([2]; serum sample, LC/MS, detection intensity vs 30 minutes from centrifugation to isolation): Decrease
- Time when compound is affected ([2]; serum sample, LC/MS, time from centrifugation to isolation, detection intensity changed by 30% or more vs 30 minutes): After 1 hour hours
- Rate of increase or decrease ([3]; 4 times of freezing and thawing, detection intensity relative to 1 at 2 times): 0.54
- Number of times when compound is affected ([3]; serum sample, LC/MS, detection intensity changed by 30% or more vs 2 times of freezing and thawing): 4 times
- Increase or decrease ([3]; serum sample, LC/MS, detection intensity vs 2 times of freezing and thawing): Decrease
- Rate of increase or decrease [4, 10]: 1.39
- Increase or decrease [4, 11]: Increase
- Rate of increase or decrease [5, 12]: 0.36
- Increase or decrease [5, 13]: Decrease
- Rate of increase or decrease [6, 12]: 0.58
- Increase or decrease [6, 13]: Decrease
- Rate of increase or decrease [7, 10]: 0.17
- Increase or decrease [7, 11]: Decrease
- Rate of increase or decrease ([8]; detection intensity relative to 1 at 30 minutes, after 1 hour): 3.11
- Increase or decrease ([8]; detection intensity, after 1 hour vs 30 minutes): Increase
- Rate of increase or decrease ([9]; detection intensity relative to 1 at 1 minute or less, blood collection to cooling 5 minutes): 1.52
- Increase or decrease ([9]; detection intensity, blood collection to cooling 5 minutes or more vs 1 minute or less): Increase
SMILES: Nc1ncnc2c1ncn2[C@@H]1O[C@H](CO)[C@@H](O)[C@H]1O [Adenosine]
